Results on one compound are retold here after publication PMC7719179, “Small molecule inhibition of Dynamin-dependent endocytosis targets multiple niche signals and impairs leukemia stem cells” (Nature Communications, 2020).

The test system of test [1] is pre-LSCs within the DN3a thymocyte population of Lmo2^Tg mice. In words: Limiting dilution transplantation assay, pre-LSC frequency. The format is in vivo, mouse. How it is done:
Single-cell suspension of murine thymus cells were intravenously injected into sublethally irradiated (650 Rads) isogenic Ly5.1 (Cd45.1) mice. Fold expansion was calculated by dividing the absolute output number of donor-derived DN3a cells harvested at the experimental endpoint by the respective number of DN3a thymocytes injected in each recipient. Limiting dilution transplantations were performed as described, by injecting various doses (10^1 to 10^6) of thymocytes per recipient, and mice were scored positive when T-cell lineage reconstitution assessed 6 weeks after transplantation was >1%. Leukemia-propagating cell frequency was calculated by applying Poisson statistics using the ELDA: Extreme Limiting Dilution Analysis software (Walter and Eliza Hall Institute Bioinformatics, Parkville VIC, Australia)[96]. Limiting dilution transplantations were performed independently from any other transplantation assays, using thymocytes from three different Lmo2^Tg mice for each cohort. Kaplan–Meier survival and statistical analysis were performed using GraphPad Prism. 6.0 software (GraphPad Software Inc, San Diego CA, USA).

Test [2] concerns pStat5 and Hes1 in DN3a cells. In words: pStat5 and Hes1 in DN3a cells from treated Lmo2^Tg mice (flow cytometry). The format is in vivo, mouse. How it is done:
The synthesis of Dynole 34-2 and Dyngo 4a compounds was performed as previously described[32],[33] and was kindly provided by A. McCluskey. For in vitro assays, the specific Dynamin inhibitors Dynole 34-2, Dyngo 4a and Dynasore (#S8047, Selleckchem, Sapphire Bioscience Pty Ltd, Redfern NSW, Australia) were made as stock solutions in 100% dimethyl sulfoxide (DMSO), which were stored frozen. These compounds were diluted in 50% v/v DMSO/20 mM Tris-HCl pH 7.4 immediately prior to use. For in vivo administration, Dynole 34-2 was resuspended in pre-warmed HRC#5 (Pharmatek, San Diego CA, USA) 1 : 9 phosphate-buffered saline (PBS) 1× pH 7.4 at 37 °C, and sonicated 10 times for 30 s using a Bioruptor Plus (Biogenode) immediately prior to injection at 30 mg/kg, twice daily.
Phosphoflow analysis was performed as previously described. Briefly, 2 × 10^6 cells stained for surface markers were subsequently resuspended into PBS 1× + 4% v/v paraformaldehyde and incubated for 10 min at 4 °C for fixation. Fixed cells were washed twice using PBS 1×, then resuspended in pre-chilled at −20 °C Perm Buffer III (BD Pharmingen) and incubated 30 min at 4 °C for permeabilization. Cells were washed twice using PBS 1× and incubated overnight at 4 °C in PBS 1× + 2% v/v fetal calf serum (FCS) with Cell Signalling purified antibodies (Genesearch Pty Ltd, Arundel QLD, Australia) against pSTAT5 (Tyr694; #9359), phospho-p38 MAPK (Thr180/Tyr182; #4511), phospho-p44/42 (Erk1/2; #9102), phospho-S6 (Ser235/236; #4856) and phospho-Akt (Ser473; #9271) or isotype control. For intracellular HES1 detection, cells stained for surface markers were subsequently fixed and permeabilized using the BD Cytofix/Cytoperm^TM Kit and incubated overnight at 4 °C in PBS 1× + 2% v/v FCS with a purified antibody against HES1 (D6PU; #11988, Cell Signalling) or isotype control. After staining with primary antibodies for phosphoflow or intracellular detection, cells were incubated in permeabilization buffer with donkey Alexa Fluor 488-conjugated anti-rabbit secondary antibody (A-21206, lot #1910751, Molecular Probes, Invitrogen) or goat Alexa Fluor 546-conjugated anti-rabbit secondary antibody (A-11035, lot #1904467, Molecular Probes, Invitrogen) for 1 h on ice, and washed twice in PBS 1×. Fluorescence-activated cell sorting (FACS) analysis was performed using LSRII and LSR Fortessa cytometers, following the gating strategies described in Supplementary Fig. 11. Cell sorting was performed with a FACSAria or BD Influx.
(A flow cytometer gives signals particle by particle.)

“And” between values parts separate entries of the source, which are not always exact repeats. Identical values can stand only once.

For `CCCCCCCCNC(=O)C(C#N)=Cc1cn(CCCN(C)C)c2ccccc12` [Dynole 34-2, 2-Cyano-N-octyl-3-(1-(3-dimethylaminopropyl)-1H-indol-3-yl)-acrylamide], the “Limiting dilution assay, Response (positive recipients)” value in test [1] (cell dose 106, 9 recipients tested) is listed as 0; in test [1] (cell dose 1060, 9 recipients tested) it was 0; in test [1] (cell dose 10602, 6 recipients tested), 3; in test [1] (cell dose 106020, 6 recipients tested), 5. Further, the “fold decrease in pre-LSC frequency” value in test [1] (treated Lmo2^Tg mice vs vehicle) was found to be 100 fold. Besides, the “Hes1 (MFI)” value in test [2] (DN3a cells from treated Lmo2^Tg mice) is 22166 MFI and 17427 MFI and 19107 MFI and 15447 MFI; in test [2] (GFPhi DN3a cells), 2603 MFI and 2496 MFI and 2588 MFI and 2307 MFI and 2171 MFI; in test [2] (GFPlo DN3a cells), 2885 MFI and 2559 MFI and 2562 MFI and 2408 MFI and 2317 MFI. Further, the “pStat5 (MFI)” value was 1253 MFI and 1075 MFI and 1590 MFI and 1503 MFI and 1019 MFI in test [2] (GFPhi DN3a cells); 1761 MFI and 1433 MFI and 1767 MFI and 1648 MFI and 1460 MFI in test [2] (GFPlo DN3a cells).
